From ChEMBL document CHEMBL1150893, “Grenadadiene and grenadamide, cyclopropyl-containing fatty acid metabolites from the marine cyanobacterium Lyngbya majuscula” (J Nat Prod, 1998)
Converted amounts (≈) assume the structure as drawn.

Legend:
[1] = Toxicity in Artemia salina; assay type: organism-based; details: in vivo, read-out: LD50 (the source's name)
[2] = Binding affinity to cannabinoid receptor in rat brain membrane assessed as cannabinomimetic activity; assay type: cell membranes

Compound | LC50 [1] [µg/mL] | Ki [2] [µM]
CCCCCCC[C@@H]1C[C@H]1CCC(=O)O/C=C\C=C\COC(C)=O [DEBROMOGRENADINE] | 5 (≈ 14.9 µM) | 4.7
CCCCCCC[C@@H]1C[C@H]1CCC(=O)NCCc1ccccc1 [GRENADAMIDE C] | 5 (≈ 15.8 µM) | 4.7
